Assay results published in ChEMBL document CHEMBL5346937, “Repurposing 1,2,4-oxadiazoles as SARS-CoV-2 PLpro inhibitors and investigation of their possible viral entry blockade potential” (Eur J Med Chem, 2023).

Experiments:
[1] = target: Spike glycoprotein/Angiotensin-converting enzyme 2 (Severe acute respiratory syndrome coronavirus 2) (UniProt Q9BYF1+P0DTC2); test: Inhibition of SARS-CoV-2 spike protein RBD- human ACE2 interaction at 10 uM pretreated with SARS-CoV-2 spike RBD for 2 hrs followed by ACE2 addition and measured after 2 hrs by […] based ELISA analysis relative to control; type: protein assay; settings: time 4.0 hrs
[2] = target: Replicase polyprotein 1ab (Severe acute respiratory syndrome coronavirus 2) (UniProt P0DTD1); test: Inhibition of SARS-CoV-2 PLpro at 10 uM using Arg-Leu-Arg-Gly-Gly-AMC as substrate preincubated for 5 mins followed by substrate addition measured after 6 mins by fluorescence based assay relative to control; settings: time 11.0 min
WI-38 = test: (§1) Cytotoxicity against human WI-38 cells assessed as reduction in cell viability incubated for 72 hrs by MTT assay; type: toxicity, cell-based; settings: wi-38, 72 h
[3] = as §1; type: toxicity, cell-based; settings: WI-38 cells
A549 = test: Cytotoxicity against human […] A549 cells assessed as reduction in cell viability incubated for 72 hrs by MTT assay; type: functional; settings: for CC50: Homo sapiens, A549
SARS-CoV-2 = test: Antiviral activity against SARS-CoV-2 assessed as inhibition of viral growth; type: functional, organism-based; settings: Severe acute respiratory syndrome coronavirus 2
[4] = target: Replicase polyprotein 1ab (Severe acute respiratory syndrome coronavirus 2, UniProt P0DTD1); test: Inhibition of SARS-CoV-2 PLpro using Arg-Leu-Arg-Gly-Gly-AMC as substrate preincubated for 5 mins followed by substrate addition measured after 6 mins by fluorescence based assay
[5] = Octanol/water partition coefficient, logP of the compound by HPLC analysis; type: physicochemical
[6] = target: Spike glycoprotein/Angiotensin-converting enzyme 2 (Severe acute respiratory syndrome coronavirus 2, UniProt P0DTC2+Q9BYF1); test: Inhibition of SARS-CoV-2 spike protein RBD- human ACE2 interaction pretreated with SARS-CoV-2 spike RBD for 2 hrs followed by ACE2 addition and measured after 2 hrs by […] based ELISA analysis; type: protein assay
Chain of Spike glycoprotein/Angiotensin-converting enzyme 2 (Q9BYF1 18-805 limits assumed, other chains not shown): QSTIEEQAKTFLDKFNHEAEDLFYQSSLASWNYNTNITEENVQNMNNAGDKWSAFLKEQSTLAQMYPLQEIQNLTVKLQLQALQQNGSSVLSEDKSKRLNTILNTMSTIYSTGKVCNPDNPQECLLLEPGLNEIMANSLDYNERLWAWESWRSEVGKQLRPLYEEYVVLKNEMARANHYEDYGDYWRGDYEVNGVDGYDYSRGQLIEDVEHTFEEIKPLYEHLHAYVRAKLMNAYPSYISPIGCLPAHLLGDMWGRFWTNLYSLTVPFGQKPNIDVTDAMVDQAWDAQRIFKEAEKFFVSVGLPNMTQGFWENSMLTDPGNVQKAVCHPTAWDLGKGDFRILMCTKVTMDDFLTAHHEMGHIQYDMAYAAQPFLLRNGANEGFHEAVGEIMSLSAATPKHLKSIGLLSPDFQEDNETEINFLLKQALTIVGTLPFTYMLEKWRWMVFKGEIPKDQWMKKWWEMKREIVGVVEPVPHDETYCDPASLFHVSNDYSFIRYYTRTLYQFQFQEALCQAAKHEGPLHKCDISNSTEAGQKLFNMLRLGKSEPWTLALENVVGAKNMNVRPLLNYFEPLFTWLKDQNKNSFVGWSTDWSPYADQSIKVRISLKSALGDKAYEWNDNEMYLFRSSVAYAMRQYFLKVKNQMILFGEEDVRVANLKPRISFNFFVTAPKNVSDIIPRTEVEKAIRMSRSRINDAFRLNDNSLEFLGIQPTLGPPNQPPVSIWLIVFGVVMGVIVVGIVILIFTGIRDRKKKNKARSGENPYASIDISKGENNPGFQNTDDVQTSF

SMILES	inhibition [1] [%]	inhibition [2] [%]	EC100 (WI-38) [µM]	CC50 at 72 h [3] [µM]	EC100 (A549) [µM]	CC50 (A549) [µM]	CC50 (WI-38) [µM]	IC50 (SARS-CoV-2) [µM]	IC50 ([4]; read-out: IC50) [µM]	IC50 ([4]; read-out: pIC50 (converted)) [µM]	logP [5]	IC50 ([6]; read-out: IC50) [µM]	IC50 ([6]; read-out: pIC50 (converted)) [µM]
Nc1ccccc1-c1noc(-c2ccccc2)n1	23.3	20.8	7.299	36.5	5.886	28.7							
CC(=O)Oc1ccccc1-c1nc(-c2ccccc2N(C(C)=O)C(C)=O)no1	44.4	17.1	0.641		0.207	20.5							
Nc1ccccc1-c1nc(-c2ccccc2)no1	31.4	21.1	19.059		11.681	24.7	57.2						
CCN(CC)CCCC(C)Nc1ccnc2cc(Cl)ccc12 (configuration not stated) [CHLOROQUINE]								1.13					
O=C(O)CN1C(=O)COc2ccccc2-c2nc(no2)-c2ccccc21	10.6	5.9	5.727		3.695	19.6	23.8						
Nc1ccccc1-c1noc(-c2ccccc2N)n1	26.1	16.2	9.738		12.25	29	48.7						
Oc1ccccc1-c1noc(-c2ccccc2O)n1		11.7	5.208		3.36	19.5	26						
CCN(CCO)CCCC(C)Nc1ccnc2cc(Cl)ccc12 (configuration not stated) [HYDROXYCHLOROQUINE]								0.72					
[N-]=[N+]=Nc1ccccc1-c1noc(-c2ccccc2O)n1		1.1	7.701		6.707	28.2	38.5						
O=CNc1ccccc1-c1noc(-c2ccccc2O)n1	44.3	35.1	8.116		15.708	31.4	40.6						
CCOC(=O)CN1C(=O)COc2ccccc2-c2nc(no2)-c2ccccc21	15.6	18.1	6.313		7.127	14.2	31.6						
Nc1ccccc1-c1noc(-c2ccccc2O)n1	18.1	13.6	6.474		4.114	22	32.4						
Nc1ccccc1-c1noc(-c2ccncc2)n1	65.6	58.6	10.356		8.352	45.8	51.8		7.2	7.21	3.8	8.67	8.69
Cc1ncc(COP(=O)([O-])O)c(/C=N/c2ccccc2-c2noc(-c3ccccc3)n2)c1O.[Na+]	36.7	22.5	2.03		0.655	6.46	10.1						
Cc1ncc(COP(=O)([O-])O)c(/C=N/c2ccccc2-c2noc(-c3ccccc3O)n2)c1O.[Na+]	26.1	13.9	4.956		2.718	1.03	3.21						
Nc1ccccc1-c1nc(-c2ccc(C(F)(F)F)cc2)no1		5	1.156		0.373	2.37	5.78						
